The values below come from US6569411B2, “Serine carbonates” (The Gillette Company, priority 1999, dated 2003).

Data set [1] concerns Staphylococcus haemolyticus cells. Nature of the data set: Gas chromatography assay of cleavage of serine carbonates by axilla bacteria. Type of data set: cell-based. Particulars: 350 nmol of compound, 16-18 hours at 37° C. The method, then:
This example is meant to illustrate, not to limit, the invention.
The synthesized amino acid derivatives were tested for their ability to be cleaved by bacteria normally found in human axilla. A 100 ml culture of Staphylococcus haemolyticus was grown overnight at 37° C. in TSB medium.
The cells were pelleted by centrifuging the culture at 5,000 rpm for 12 minutes, and the pelleted cells were resuspended in sterile saline. The cells were again pelleted and resuspended in sterile saline. After pelleting the cells once again, the cells were weighed and resuspended in sterile assay buffer (50 mM phosphate, pH 6.8, 1% glucose/dextran). The final concentration of cells was 0.05 g cells/ml (for the gas chromatography (GC) assay). These cell suspensions can be stored at 4° C.
The serine carbonate was prepared as stock solution at a concentration of approximately 5 mg/ml in 50 mM potassium phosphate buffer (pH 6.8). If necessary, the pH can be adjusted to 6.8-7.0 with 1N NaOH. The serine carbonate stock solution was sterilized by filtering through 0.22 μm filters.
For a negative control, the cells were incubated with 100 μl sterile phosphate buffer. […] The samples then were extracted into 100 μl chloroform and analyzed by gas chromatography.

For data set [2] the test system is unchanged. Briefly: Sniff assay: malodor inhibition and fragrance production with axillary malodor precursors. Particulars: 0.1% compound with malodor precursors and cells at 37° C., seven judges, 8-point scale. In kind it is cell-based. As for the experimental part: The serine carbonate 2-Amino-3-(1,5,7-trimethyl-octyl-oxycarbonyloxy)-propionic acid has been tested in a sniff assay to determine whether, in the presence of Staphylococcus haemolyticus and axillary malodor precursors, production of malodor is inhibited and production of fragrance can be detected. For this assay, axillary washes, which contain malodor precursors, were dried into vials at a concentration sufficient to produce a strong axillary malodor when incubated with Staphylococcus haemolyticus cells. Vials were incubated at 37° C. with Staphylococcus haemolyticus cells. The vials contained […] with 0.1% 2-amino-3-(1,5,7-trimethyl-octyl-oxycarbonyloxy)-propionic acid. Control precursor vials were not incubated with the cells. The mixtures were extracted with chloroform and about 10 μl of the chloroform layers were spotted on bibulous paper. After the chloroform had evaporated, the papers were evaluated for malodor level and fragrance level. Evaluations were done by seven judges who rated malodor or fragrance strength on an 8-point scale from 0 (none) to 7 (extremely strong). Results were calculated as percent change from control malodor or precursor fragrance score.

Take `CC(CCOC(=O)OCC(N)C(=O)O)CCc1ccccc1` (centres unmarked) [Example 3e, 2-Amino-3-(3-methyl-5-phenyl-pentyloxycarbonyloxy)-propionic acid]: the “precursor cleaved by the cells” value in data set [1] is given as 40%. Moreover, the “3-methyl-5-phenyl-pentanol produced by the cell incubation” value in data set [1] (pH 6.8, GC analysis) was determined as 140 nmols.
In data set [2] (percent change from control malodor score), `CC(C)CC(C)CCCC(C)OC(=O)OCC(N)C(=O)O` (centres unmarked) [Example 3a, 2-Amino-3-(1,5,7-trimethyl-octyloxycarbonyloxy)-propionic acid] showed a Malodor drop of 50%. In addition, in data set [2] (percent change from control precursor fragrance score), the Fragrance increase came to 30%.
Turning to `CC(C)CCCC(C)C1CCC2C3CC=C4CC(OC(=O)OCC(N)C(=O)O)CCC4(C)C3CCC12C` (centres unmarked), the melting point (usually the temperature, or range, at which the solid turns liquid) came to 147 °C.
